Structures are written as SMILES.

Experimental findings from patent US9029531B2 (Agios Pharmaceuticals, Inc., priority 2012, dated 2015) are described below.

The experiment addresses T1, glutaminase (GAC) (Homo sapiens, UniProt O94925).
T1 sequence (O94925 55-598 isoform O94925-3 limits assumed): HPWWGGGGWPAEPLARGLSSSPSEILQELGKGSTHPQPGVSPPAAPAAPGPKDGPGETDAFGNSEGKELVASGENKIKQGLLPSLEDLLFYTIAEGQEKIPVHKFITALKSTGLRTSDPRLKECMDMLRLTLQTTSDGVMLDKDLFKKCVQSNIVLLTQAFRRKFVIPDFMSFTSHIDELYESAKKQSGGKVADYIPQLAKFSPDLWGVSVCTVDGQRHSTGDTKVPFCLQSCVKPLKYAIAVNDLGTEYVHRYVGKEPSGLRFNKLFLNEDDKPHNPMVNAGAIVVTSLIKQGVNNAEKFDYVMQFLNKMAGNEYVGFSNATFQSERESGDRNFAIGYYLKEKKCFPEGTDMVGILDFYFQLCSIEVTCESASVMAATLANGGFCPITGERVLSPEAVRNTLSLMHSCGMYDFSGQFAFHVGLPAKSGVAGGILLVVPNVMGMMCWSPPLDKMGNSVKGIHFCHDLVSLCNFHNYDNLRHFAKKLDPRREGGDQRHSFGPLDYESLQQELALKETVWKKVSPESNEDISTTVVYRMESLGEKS
The experiment can be described thus: Glutaminase coupled endpoint enzymatic assay (Example A). It is filed as biochemical. The following applies: inhibition of glutaminase; assay of Example A or Example B. Summed up: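 Endpoint coupled assay: glutamate formed by GAC drives GDH NADH production, recycled by diaphorase reducing resazurin to fluorescent resorufin (Ex544/Em590) after SDS stop. Buffer pH 8.5 with phosphate; glutamine at Km; enzyme preincubated with compound 60 min at room temperature.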

In general, IC50 refers to the concentration that inhibits the measured activity by half. A high value points to weaker potency in that assay. With `COc1ccc(CC(=O)Nc2nnc([C@H]3CCC[C@H](c4nnc(NC(=O)Cc5ccc(OC)cn5)s4)C3)s2)nc1` [Compound 225, N,N′-(5,5′-((1S,3S)-cyclohexane-1,3-diyl)bis(1,3,4-thiadiazole-5,2-diyl))bis(2-(5-methoxypyridin-2-yl)acetamide)], the IC50 is less than 100 nM.
In turn, `O=C(Cc1cccnc1)Nc1nnc(C2CCC(c3nnc(NC(=O)Cc4cccnc4)s3)C2)s1` (stereo not drawn) [Compound 103] showed an IC50 of 100 to 500 nM.
The compound `N#Cc1cccc(CC(=O)Nc2nnc(C3CCCCC(c4nnc(NC(=O)Cc5cccc(C#N)c5)s4)C3)s2)c1` (stereo not drawn) [Compound 124] gave an IC50 of 1000 to 2000 nM.
`O=C(Cc1cccc(N2CCOCC2)c1)Nc1nnc([C@H]2CCC[C@H](c3nnc(NC(=O)Cc4cccc(N5CCOCC5)c4)s3)C2)s1` [Compound 262, N,N′-(5,5′-((1S,3S)-cyclohexane-1,3-diyl)bis(1,3,4-thiadiazole-5,2-diyl))bis(2-(3-morpholinophenyl)acetamide)] showed an IC50 of less than 100 nM.
`O=C(Cc1cccc(NC2CC(F)(F)C2)n1)Nc1nnc([C@H]2CCC[C@H](c3nnc(NC(=O)Cc4cccc(NC5CC(F)(F)C5)n4)s3)C2)s1` [Compound 250, N,N′-(5,5′-((1S,3S)-cyclohexane-1,3-diyl)bis(1,3,4-thiadiazole-5,2-diyl))bis(2-(6-(3,3-difluorocyclobutylamino)pyridin-2-yl)acetamide)]: the half-maximal inhibitory concentration (IC50) lay in the range of 100 to 500 nM.
On to `COc1ccnc(CC(=O)Nc2nnc([C@@H]3CCC[C@@H](c4nnc(NC(=O)Cc5cc(OC)ccn5)s4)C3)s2)c1` [Compound 119], for which the IC50 is less than 100 nM.
The value for `COc1cccc(CC(=O)Nc2nnc([C@H]3CCC[C@H](c4nnc(NC(=O)Cc5ccccn5)s4)C3)s2)c1` [Compound 81, 2-(3-methoxyphenyl)-N-(5-((1S,3S)-3-(5-(2-(pyridin-2-yl)acetamido)-1,3,4-thiadiazol-2-yl)cyclohexyl)-1,3,4-thiadiazol-2-yl)acetamide] was less than 100 nM; that for `O=C(Cc1ccccc1)Nc1nnc([C@H]2CCC[C@H](c3nnc(NC(=O)Cc4ccccc4)s3)C2)s1` [Compound 9, N,N′-(5,5′-((1S,3S)-cyclohexane-1,3-diyl)bis(1,3,4-thiadiazole-5,2-diyl))bis(2-phenylacetamide)] was less than 100 nM.
The compound `O=C(Cc1cccc(C2CCNCC2)c1)Nc1nnc([C@H]2CCC[C@H](c3nnc(NC(=O)Cc4cccc(C5CCNCC5)c4)s3)C2)s1` [Compound 272, N,N′-(5,5′-((1S,3S)-cyclohexane-1,3-diyl)bis(1,3,4-thiadiazole-5,2-diyl))bis(2-(3-(piperidin-4-yl)phenyl)acetamide)] showed an IC50 of less than 100 nM.
Then `O=C(Cc1cccnn1)Nc1nnc([C@H]2CCC[C@H](c3nnc(NC(=O)Cc4cccnn4)s3)C2)s1` [Compound 231, N,N′-(5,5′-((1S,3S)-cyclohexane-1,3-diyl)bis(1,3,4-thiadiazole-5,2-diyl))bis(2-(pyridazin-3-yl)acetamide)], with 100 to 500 nM; and `O=C(Cc1ccccn1)Nc1nnc([C@@H]2CC[C@H](c3nnc(NC(=O)Cc4ccccn4)s3)C2)s1` [Compound 32], with 500 to 1000 nM; and `NCc1cccc(CC(=O)Nc2nnc([C@H]3CCC[C@H](c4nnc(NC(=O)Cc5cccc(CN)n5)s4)C3)s2)n1` [Compound 244, N,N′-(5,5′-((1S,3S)-cyclohexane-1,3-diyl)bis(1,3,4-thiadiazole-5,2-diyl))bis(2-(6-(aminomethyl)pyridin-2-yl)acetamide)], with 100 to 500 nM.
`Nc1ccccc1CC(=O)Nc1nnc([C@H]2CCC[C@H](c3nnc(NC(=O)Cc4ccccc4N)s3)C2)s1` [Compound 56, N,N′-(5,5′-((1S,3S)-cyclohexane-1,3-diyl)bis(1,3,4-thiadiazole-5,2-diyl))bis(2-(2-aminophenyl)acetamide)]: the IC50 is less than 100 nM.
Then `O=C(Cc1cccc(N2CC(F)C2)n1)Nc1nnc([C@H]2CCC[C@H](c3nnc(NC(=O)Cc4cccc(N5CC(F)C5)n4)s3)C2)s1` [Compound 251, N,N′-(5,5′-((1S,3S)-cyclohexane-1,3-diyl)bis(1,3,4-thiadiazole-5,2-diyl))bis(2-(6-(3-fluoroazetidin-1-yl)pyridin-2-yl)acetamide)], with less than 100 nM; and `O=C(Cc1cccnc1)Nc1nnc(C2CCCCC(c3nnc(NC(=O)Cc4cccnc4)s3)C2)s1` (stereo not drawn) [Compound 126], with 100 to 500 nM; and `CN1CCN(c2cccc(CC(=O)Nc3nnc([C@H]4CCC[C@H](c5nnc(NC(=O)Cc6cccc(N7CCN(C)CC7)c6)s5)C4)s3)c2)CC1` [Compound 259], with 100 to 500 nM.
Compound `COc1ccc(F)c(CC(=O)Nc2nnc([C@H]3CCC[C@H](c4nnc(NC(=O)Cc5cc(OC)ccc5F)s4)C3)s2)c1` [Compound 248, N,N′-(5,5′-((1S,3S)-cyclohexane-1,3-diyl)bis(1,3,4-thiadiazole-5,2-diyl))bis(2-(2-fluoro-5-methoxyphenyl)acetamide)] yielded an IC50 of less than 100 nM.
As to `O=C(Cc1cccc(NC2CC2)c1)Nc1nnc([C@H]2CCC[C@H](c3nnc(NC(=O)Cc4cccc(NC5CC5)c4)s3)C2)s1` [Compound 261, N,N′-(5,5′-((1S,3S)-cyclohexane-1,3-diyl)bis(1,3,4-thiadiazole-5,2-diyl))bis(2-(3-(cyclopropylamino)phenyl)acetamide)], the IC50 was less than 100 nM.
Then `COc1ccnc(CC(=O)Nc2nnc([C@H]3CCC[C@H](c4nnc(NC(=O)Cc5cc(OC)ccn5)s4)C3)s2)c1` [Compound 223, N,N′-(5,5′-((1S,3S)-cyclohexane-1,3-diyl)bis(1,3,4-thiadiazole-5,2-diyl))bis(2-(4-methoxypyridin-2-yl)acetamide)], with less than 100 nM.
The value for `COc1ccccc1CC(=O)Nc1nnc([C@@H]2CC[C@@H](c3nnc(NC(=O)Cc4ccccc4OC)s3)C2)s1` [Compound 117] was 500 to 1000 nM; that for `COc1cccc(CC(=O)Nc2nnc([C@@H]3CC[C@H](c4nnc(NC(=O)Cc5cccc(OC)c5)s4)C3)s2)c1` [Compound 107] was 100 to 500 nM.
Take `O=C(Cc1cccs1)Nc1nnc([C@H]2CCC[C@H](c3nnc(NC(=O)Cc4cccs4)s3)C2)s1` [Compound 59, N,N′-(5,5′-((1S,3S)-cyclohexane-1,3-diyl)bis(1,3,4-thiadiazole-5,2-diyl))bis(2-(thiophen-2-yl)acetamide)]: the IC50 was less than 100 nM.
`CN(C)c1nc(CC(=O)Nc2nnc([C@H]3CCC[C@H](c4nnc(NC(=O)Cc5csc(N(C)C)n5)s4)C3)s2)cs1` [Compound 278, N,N′-(5,5′-((1S,3S)-cyclohexane-1,3-diyl)bis(1,3,4-thiadiazole-5,2-diyl))bis(2-(2-(dimethylamino)thiazol-4-yl)acetamide)] came in with an IC50 of 100 to 500 nM.
With `COc1cccc(CC(=O)Nc2nnc(C3CCCCC(c4nnc(NC(=O)Cc5cccc(OC)c5)s4)C3)s2)c1` (stereo not drawn) [Compound 120], the half-inhibitory concentration (IC50) was in the range of 500 to 1000 nM.
The value for `COc1cc(CC(=O)Nc2nnc([C@H]3CCC[C@H](c4nnc(NC(=O)Cc5ccnc(OC)c5)s4)C3)s2)ccn1` [Compound 224, 2-(2-methoxypyridin-4-yl)-N-[5-[(1S,3S)-3-[5-[[2-(2-methoxypyridin-4-yl)acetyl]amino]-1,3,4-thiadiazol-2-yl]cyclohexyl]-1,3,4-thiadiazol-2-yl]acetamide] was less than 100 nM.
`COC1CN(c2cccc(CC(=O)Nc3nnc([C@H]4CCC[C@H](c5nnc(NC(=O)Cc6cccc(N7CC(OC)C7)n6)s5)C4)s3)n2)C1` [Compound 270, N,N′-(5,5′-((1S,3S)-cyclohexane-1,3-diyl)bis(1,3,4-thiadiazole-5,2-diyl))bis(2-(6-(3-methoxyazetidin-1-yl)pyridin-2-yl)acetamide)] registered an IC50 of less than 100 nM.
`COc1ccccc1CC(=O)Nc1nnc(C2CCCCC(c3nnc(NC(=O)Cc4ccccc4OC)s3)C2)s1` (stereo not drawn) [Compound 123]: the IC50 lay in the range of 1000 to 2000 nM.
Then `O=C(Cc1cc(N2CC(F)C2)ccn1)Nc1nnc([C@H]2CCC[C@H](c3nnc(NC(=O)Cc4cc(N5CC(F)C5)ccn4)s3)C2)s1` [Compound 256, N,N′-(5,5′-((1S,3S)-cyclohexane-1,3-diyl)bis(1,3,4-thiadiazole-5,2-diyl))bis(2-(4-(3-fluoroazetidin-1-yl)pyridin-2-yl)acetamide)], with less than 100 nM.
`O=C(Cc1ccc(C2CCNCC2)cc1)Nc1nnc([C@H]2CCC[C@H](c3nnc(NC(=O)Cc4ccc(C5CCNCC5)cc4)s3)C2)s1` [Compound 290] returned an IC50 of less than 100 nM.
Consider `O=C(Cc1ccccn1)Nc1nnc(C2CCCCC(c3nnc(NC(=O)Cc4ccccn4)s3)C2)s1` (stereo not drawn) [Compound 122], for which the concentration for half-maximal inhibition (IC50) was in the range of 1000 to 2000 nM.
The compound `O=C(Cc1cccnc1)Nc1nnc(C[C@H]2C[C@@H]2Cc2nnc(NC(=O)Cc3cccnc3)s2)s1` (racemic) [Compound 5, N,N′-(5,5′-(trans-cyclopropane-1,2-diylbis(methylene))bis(1,3,4-thiadiazole-5,2-diyl))bis(2-(pyridin-3-yl)acetamide)] showed an IC50 of 100 to 500 nM.
The compound `COc1cccc(CC(=O)Nc2nnc(C3CCC(c4nnc(NC(=O)Cc5cccc(OC)c5)s4)C3)s2)c1` (stereo not drawn) [Compound 68] gave an IC50 of 100 to 500 nM.
`O=C(Cc1c[nH]c2ccccc12)Nc1nnc([C@H]2CCC[C@H](c3nnc(NC(=O)Cc4c[nH]c5ccccc45)s3)C2)s1` [Compound 22] displayed an IC50 of less than 100 nM.
